Measured values as given in article PMC11267536, “Gonococcal Mimitope Vaccine Candidate Forms a Beta-Hairpin Turn and Binds Hydrophobically to a Therapeutic Monoclonal Antibody” (JACS Au, 2024).
Where “and” joins values, the source holds several entries; their conditions need not be identical. Equal entries are not always repeated. Bridges are numbered along the chain shown (N, C = ends).

What was measured:
mAb 2C7 [1] = assay: STD NMR titration of CP2 into mAb 2C7; type: binding, Human-mouse chimeric; details: STD-AF of methyl signals, one-site Langmuir model, saturation time 2 s, CP2 0.17-1.70 mM, 50 mM phosphate pH 7.4, H2O:D2O 90:10, 288 and 298 K, read-out: apparent equilibrium dissociation constant (KD)
Procedure: Chimeric mAb 2C7 and the sequence for the VH and VL regions of murine mAb 2C7 have been described previously.[18] Human-mouse chimeric mAb 2C7 was expressed in ExpiCHO cells and purified by affinity chromatography of tissue culture supernatants using Protein A/G agarose. Chimeric Fab 2C7 was expressed in CHO cells and purified by affinity chromatography with an anti-CH1 antibody (LakePharma).
(§1) NMR spectra were recorded on a Bruker AVANCE NEO 600-MHz equipped with a cryo probe, and data acquisition and processing were performed with TOPSPIN 4.1.1 software. Samples were prepared in H2O:D2O (90:10) buffered with 50 mM phosphate at pH 7.4, using 3 mm NMR tubes. NMR spectra were acquired using antibody concentrations of 10–20 μM, a peptide concentration of 1 mM, and an antibody:peptide ratio from 1:18 to 1:50, depending on the NMR experiments, and temperatures of 288 and 298 K; 0.05 mM amount of deuterated trimethylsilylpropanoic acid (TSP) was used as an internal standard.
STD NMR experiments were acquired with 32,000 data points and zero-filled up to 64,000 data points prior to processing. The protein resonances were selectively irradiated using 40 Gauss pulses with a length of 50 ms, setting the off-resonance pulse frequency at 40 ppm and the on-resonance pulse at 5.5 ppm. An excitation sculpting with gradient pulses (esgp) was applied for the suppression of water signals. […]

mAb 2C7 [2] = assay: WaterLOGSY, CPMG and 1D NH chemical shift perturbation NMR; type: binding, Human-mouse chimeric
Procedure: as §1
The waterLOGSY experiments were performed on CP2 in the absence and presence of the mAb, using a conventional 1D NOE-ePHOGSY pulse sequence[36] provided in the Bruker library (ephogsygpno.2). The bulk water was selectively irradiated by 1D NOESY, and the solvent suppression was modified into a double pulsed-field gradient (DPFG) perfect-echo.[37] A mixing time of 2s was used in order to compare the WaterLOGSY experiment with the STD NMR experiment.
A mixture of 20 μM mAb2C7 and 1 mM CP2 peptide was prepared in deuterated phosphate saline buffer pH 7.4. Pseudo 2D experiments (cpmg_esgp2d) were used for detecting T2 spin–spin relaxation measurements. Data were analyzed by fitting the equation f(t) = Io × exp (−t/T) using Dynamics Center 2.7.1.

mAb 2C7 [3] = assay: Isothermal titration calorimetry (ITC); type: binding, Human-mouse chimeric; details: 20 °C
Procedure: Isothermal titration calorimetry (ITC) experiments were carried out at 20 °C by using a MicroCal PEAQ-ITC instrument. mAb and peptide CP2 were both dialyzed against PBS pH 7.4 to avoid buffer mismatch between solutions. A solution of mAb with a concentration of 30 μM was loaded into the cell, and for each measurement, CP2 was added to the antibody solution through a microsyringe under a stirrer speed of 750 rpm. The titration was performed by adding 2 μL from a 1.67 mM CP2 solution for 19 injections using a time duration of 150 s. The data were analyzed and fitted by using the one-binding site model. The standard thermodynamic parameters of equilibrium were calculated by the following equation[45]: [drawing 2] 2 where ΔG is the Gibb’s free energy, Ka is the equilibrium constant, R is the gas constant, T is the temperature in kelvin, ΔH is the enthalpy change, and ΔS is the entropy change.

gonococci = details: ref previous studies, cited from earlier work
From the text: The spread of multidrug-resistant strains of Neisseria gonorrhoeae, the etiologic agent of gonorrhea, represents a global health emergency. Therefore, the development of a safe and effective vaccine against gonorrhea is urgently needed. […] Furthermore, we identified a peptide, cyclic peptide 2 (CP2) that mimicked the 2C7 LOS epitope, elic ... || Neisseria gonorrhoeae is a leading cause of sexually transmitted infections, which include urethritis, cervicitis, pharyngitis, locally invasive (epididymitis and salpingo-oophritis) and disseminated infections, and in rare cases, meningitis and endocarditis.[1] Infections in women are frequently asymptomatic, which augments the spread of bacteria among populations. Further, strains have emerged that are resistant to multiple antibiotics, which have the potential to lead to untreatable infections. […] Therefore, a random peptide display library was used to identify a peptide, designated as PEP1, which bound mAb 2C7. […] Subsequently, PEP1 was covalently cyclized to yield CP2 and configured as a tetramer (designated tetra-MAP CP2 or TMCP2). TMCP2 adjuvanted wit ...

gonococcal colonization = details: cited from earlier work
From the text: The spread of multidrug-resistant strains of Neisseria gonorrhoeae, the etiologic agent of gonorrhea, represents a global health emergency. Therefore, the development of a safe and effective vaccine against gonorrhea is urgently needed. […] Furthermore, we identified a peptide, cyclic peptide 2 (CP2) that mimicked the 2C7 LOS epitope, elic ... || Neisseria gonorrhoeae is a leading cause of sexually transmitted infections, which include urethritis, cervicitis, pharyngitis, locally invasive (epididymitis and salpingo-oophritis) and disseminated infections, and in rare cases, meningitis and endocarditis.[1] Infections in women are frequently asymptomatic, which augments the spread of bacteria among populations. Further, strains have emerged that are resistant to multiple antibiotics, which have the potential to lead to untreatable infections. Thus, the development of vaccines and novel therapeutics, including nonantibiotic approaches, is ... || Gonococcal lipooligosaccharide (LOS) is the most abundant component of the outer membrane. Antibodies against LOS can elicit complement-dependent bacterial killing, and therefore, LOS has been pursued as a vaccine candidate (reviewed in ref ([12])). A murine anti-LOS monoclonal antibody (mAb) 2C7 was isolated almost four decades ago.[13],[14] […]

gonococcal strains = details: cited from earlier work
From the text: Gonococcal lipooligosaccharide (LOS) is the most abundant component of the outer membrane. Antibodies against LOS can elicit complement-dependent bacterial killing, and therefore, LOS has been pursued as a vaccine candidate (reviewed in ref ([12])). A murine anti-LOS monoclonal antibody (mAb) 2C7 was isolated almost four decades ago.[13],[14] 2C7 recognizes an LOS epitope that comprises lactose from heptose (Hep) II; lactose from HepI or GlcNAc may also contribute to the 2C7 epitope (see Supporting Information, Scheme S1). This mAb reacted with 94% of 68 gonococcal strains examined in the cerv ...

[4] = target: human-mouse chimeric mAb 2C7 (mouse | human | mouse VL, human constant region); assay: ITC; 20 °C, PBS pH 7.4; 30 uM mAb in the cell, 1.67 mM CP2 in the syringe, 19 injections of 2 uL; one-site model
[5] = target: human-mouse chimeric mAb 2C7 (mouse | human | mouse VL, human constant region); assay: NMR titration; STD NMR; CP2 (0.17 to 1.70 mM) titrated into a solution of mAb; 50 mM phosphate pH 7.4, H2O:D2O 90:10; saturation time 2 s; one-site Langmuir isotherm; apparent

Br-Ac-Gly-Pro-Ile-Pro-Val-Leu-Asp-Glu-Asn-Gly-Leu-Phe-Ala-Pro-Gly-Pro-Cys-Lys-OH (sidechain bridge or staple) [CP2]
Kd (mAb 2C7 [1]): 61 µM | transverse relaxation time T2 (CPMG) (mAb 2C7 [2]; 20 μM mAb 2C7, 1 mM CP2, deuterated phosphate saline buffer pH 7.4): indicative of complex formation | WaterLOGSY binding (mAb 2C7 [2]; change in peak phase from free to bound state, mixing time 2 s): the change in the peak phase passing from the free to the bound state is indicative of binding | 1D NH chemical shift perturbation (mAb 2C7 [2]; mixture of mAb 2C7 with CP2): a few chemical shift perturbations | ΔG (mAb 2C7 [3]; PBS pH 7.4): -6.24 kcal/mol | ΔG (exothermic process) (mAb 2C7 [3]; PBS pH 7.4): < 0 | ΔH (mAb 2C7 [3]; PBS pH 7.4): -1.71 ± 0.0707 kcal/mol and -1.71 kcal/mol | −TΔS (mAb 2C7 [3]; PBS pH 7.4): -4.52 kcal/mol | binding stoichiometry N (sites) (mAb 2C7 [3]; one-site binding model, PBS pH 7.4): 1.89 ±4.4e-2 and 1.89 | Kd (mAb 2C7 [3]; one-site binding model, PBS pH 7.4, mAb 30 μM, 1.67 mM CP2, 19 injections of 2 μL): 23 µM | bactericidal antibodies (gonococci; mice): elicited bactericidal antibodies in mice | active protection (gonococcal colonization; mouse vaginal colonization model, ref previous studies): actively protected in a mouse vaginal colonization model

B1: Murine mAb 2C7: murine anti-LOS monoclonal antibody 2C7 (antibody, V domains shown)
VH: EVQLQQSGPELVKPGSSVKISCKGSGYTFTDYNMEWVKQSHGKSLEWIGVINPNNRFTSYNQNFRGKATLTVDKSSSTAYMDLRSLTSEDSAVYFCAGSRWYQYDYWGQGTTLTVSS
VL: QVVVTQESALTTSPGETVTLTCRSSTGAVTTSNYANWVQEKPDHLFTGLIGGINNRAPGVPARFSGSLIADKAALTITGAQTEDEAIYFCALWYSNHWVFGGGTKLTVL
gonococcal strains recognized (gonococcal strains; 68 gonococcal strains examined in the cervical secretions of women): 94% | clinical isolates recognized (gonococcal strains; 75 minimally passaged clinical isolates, Nanjing, China): 100% | complement-dependent bactericidal activity (gonococci; against gonococci): elicits complement-dependent bactericidal activity against gonococci | duration and burden of gonococcal colonization (gonococcal colonization; mouse vaginal model): decreased the duration and burden of gonococcal colonization

GPIPVLDENGLFAPGPCK-OH (bridge N-17; not fully specified (N-terminus, bridges)) [cyclic peptide 2 (CP2)]
Kd [4]: 23 µM | dH [4]: -1.71 kcal/mol | stoichiometry N [4]: 1.89 CP2 per mAb | Kd [5]: 61 µM
